# Data: paper PMC7677376 (Cell Discovery, 2020)
# Target: T1, MlaFEDB (Acinetobacter baumannii, UniProt A0A086HZU3)
# T1 construct: gene ttg2A
# Settings: 1 mM vanadate; traps ADP-vanadate at the MlaF ATP sites
# T1 sequence (V5V9K5 entry or part of it): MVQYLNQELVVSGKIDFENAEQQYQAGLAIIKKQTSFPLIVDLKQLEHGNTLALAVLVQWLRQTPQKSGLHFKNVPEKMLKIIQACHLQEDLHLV
# T1 sequence (V5V9F4 entry or part of it, further chain): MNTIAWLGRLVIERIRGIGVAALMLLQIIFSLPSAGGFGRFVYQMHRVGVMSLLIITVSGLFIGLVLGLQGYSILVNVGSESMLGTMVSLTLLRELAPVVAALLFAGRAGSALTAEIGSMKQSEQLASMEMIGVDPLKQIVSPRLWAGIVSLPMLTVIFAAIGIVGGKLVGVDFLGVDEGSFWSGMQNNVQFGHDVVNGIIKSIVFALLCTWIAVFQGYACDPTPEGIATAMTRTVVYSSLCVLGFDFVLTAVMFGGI
# T1 sequence (A0A086HZU3 entry or part of it): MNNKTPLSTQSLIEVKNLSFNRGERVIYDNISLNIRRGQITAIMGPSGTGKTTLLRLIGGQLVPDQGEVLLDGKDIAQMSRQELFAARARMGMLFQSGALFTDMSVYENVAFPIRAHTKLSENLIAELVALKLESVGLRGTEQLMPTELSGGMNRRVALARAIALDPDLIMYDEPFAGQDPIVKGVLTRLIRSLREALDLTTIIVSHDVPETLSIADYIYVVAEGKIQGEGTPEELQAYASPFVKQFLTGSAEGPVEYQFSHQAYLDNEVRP
# T1 sequence (V5V921 entry or part of it, further chain): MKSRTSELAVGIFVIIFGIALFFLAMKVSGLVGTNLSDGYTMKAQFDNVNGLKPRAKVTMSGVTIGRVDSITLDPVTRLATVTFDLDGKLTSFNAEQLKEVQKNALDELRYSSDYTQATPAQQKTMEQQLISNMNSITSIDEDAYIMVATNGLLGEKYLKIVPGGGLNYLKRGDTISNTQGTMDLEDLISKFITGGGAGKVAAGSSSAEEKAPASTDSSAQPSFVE
smiles,measurement,value
[O]=[V]([OH])([OH])[OH] [sodium ortho-vanadate],% inhibition at 1 mM,~ 50%
